Our source for the EC50, IC50 and outcome values is PubChem BioAssay AID179 (DTP/NCI, 2004).

Structures are written as SMILES. Where “and” joins values, the source holds several entries; their conditions need not be identical. Identical values can stand only once. Calls of active or inactive are those of the source.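 The calls were made as follows: active = compounds giving half or more protection of infected cells from virus-caused growth loss, again on retest; inactive = the rest.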 Where a SMILES comes first, the peptide text is derived from it. The star is where a group is joined. OBn = c1ccc(CO*)cc1 Some results are limits rather than exact numbers.

The experiment has as its system CEM cells HIV-1 protection, formazan growth assay. As to the kind of experiment: NCI AIDS Antiviral Assay. As to conditions: for IC50: measured here: growth of uninfected CEM cells. In outline:
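Five concentrations of each compound were applied to infected and uninfected human CEM cells. Protection from HIV-1 was judged from growth measured with a soluble formazan assay.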

On to `CC(=O)NC(C(=O)N1CCCC1C(=O)OCc1ccccc1)C(C)C` (stereo not drawn) (Ac-Val-Pro-OBn; configuration not given here), for which the EC50 (commonly the midpoint of the concentration-response curve) is over 200 µM and the IC50 (usually the concentration that gives 50% inhibition) was 112 µM.
In the case of `O=C1CC2(CCc3ccccc32)C(=O)N1CN1CCN(c2ccccn2)CC1` (stereo not given), the EC50 is over 87.1 µM and the concentration for half-maximal inhibition (IC50) came out at 70.8 µM.
On the same counts, the results for `O=C(O)CC[N+]1=CCC(c2ccccc2)(c2ccccc2)O1` are over 832 µM and over 832 µM.
On the same counts, the results for `COC(=O)c1coc(CC/C(C)=C/c2ccccc2)n1` are over 200 µM and 126 µM.
On the same counts, the results for `CCCc1cc(=O)oc2c3c(cc(OC)c12)O[C@H](C)[C@H](C)[C@@H]3O` are over 200 µM and 38.9 µM.
In the case of `Cc1cccc(C2(Br)C(=O)c3ccccc3C2=O)c1`, the EC50 was over 200 µM and the IC50 was 195 µM.
Taken in the same sequence, the figures for `CCCC1N2CCCCC2[C@@H]2c3[nH]c4ccccc4c3CCN12` (stereo not given in full) were over 427 µM and over 427 µM.
Consider `O=C(O)CCSC(=S)Nc1ccc([N+](=O)[O-])cc1`, for which the outcome was inactive.
Consider `COC(=O)CN(CC(=O)OC)S(=O)(=O)c1ccc(-c2c3nc(c(-c4ccc(S(=O)(=O)N(CC(=O)OC)CC(=O)OC)cc4)c4ccc([nH]4)c(-c4ccc(S(=O)(=O)N(CC(=O)OC)CC(=O)OC)cc4)c4nc(c(-c5ccc(S(=O)(=O)N(CC(=O)OC)CC(=O)OC)cc5)c5ccc2[nH]5)C=C4)C=C3)cc1`, for which the EC50 is over 100 µM and the IC50 was over 100 µM.
For the compound `NC(=O)N1N=C2c3ccccc3CC[C@@H]2C1c1ccccc1` (stereo not given in full), the outcome was inactive.
Take `Cc1c(CCCl)c(Cl)n2c(nc3ccccc32)c1C#N`: the EC50 was over 33.9 µM and the IC50 was 0.537 µM.
Regarding `O=C1Oc2cc3c(c4cccc1c24)OCN(c1ccccc1)C3`, the EC50 is over 33.1 µM and the IC50 worked out at 24.5 µM.
For `COc1cc(N=Nc2cc(NC(C)=O)c(N=Nc3ccc(S(=O)(=O)O)cc3)cc2S(=O)(=O)O)c(C)cc1N=Nc1ccc(NC(=O)c2ccc(N)cc2)cc1C`, the EC50 was 8.71 µM and the IC50 was 97.7 µM.
Take `O=C(NN1C(=O)C(Cl)C1c1cccc(O)c1)c1ccccc1O` (stereo not given): the EC50 was over 151 µM and the IC50 amounted to 141 µM.
As to `COc1ccc(S(=O)(=O)N/N=C(\C)CN2C(=O)c3ccccc3C2=O)cc1`, the EC50 is over 129 µM and the IC50 is over 129 µM.
Turning to `COC1/C=C/OC2(C)Oc3c(C)c(O)c4c(O)c(c(C=NN5CCCCCCCCCCCC5)c(O)c4c3C2=O)NC(=O)/C(C)=C/C=C/C(C)C(O)C(C)C(O)C(C)C(OC(C)=O)C1C` (stereo not given), the result was inactive.
For `Brc1c2c(c(Br)c3nsnc13)N=S=N2`, the result was inactive.
For `c1ccc(CC[P+](c2ccccc2)(c2ccccc2)c2ccccc2)cc1`, the EC50 was over 200 µM and the IC50 was 1.29 µM.
On to `[N-]=[N+]=NS(=O)(=O)c1cccc([N+](=O)[O-])c1`, for which the outcome was inactive.
Take `S=c1[nH]ccs1`: the EC50 is over 200 µM and the IC50 is over 200 µM.
As for `CON(C)C(=O)[C@H]1C[C@@]1(C)CO`, the EC50 was over 200 µM and the IC50 was over 200 µM.
As to `COC(OC)c1cccc2c1C1(O)CCC3(CC21)OCCCCO3` (stereo not given), the EC50 is over 200 µM and the IC50 is over 200 µM.
As to `CCC(C)[C@H](NC(=O)N[C@H](C)c1ccccc1)C(=O)OC` (stereo not given in full), the EC50 was over 200 µM and the IC50 was over 200 µM.
In the case of `O=C(Nc1ccccc1)N1N=C(c2ccccc2)C1c1ccccc1` (stereo not given), the EC50 is over 200 µM and the IC50 is 24.5 µM.
For `C=C1CN(S(=O)(=O)c2ccc(C)cc2)CCCN(CC2CC=CCC2)CCCN(S(=O)(=O)c2ccc(C)cc2)C1` (stereo not given), the EC50 was over 200 µM and the IC50 amounted to 1.29 µM.
For the compound `NC1=NC(=O)/C(=C/c2ccccc2[N+](=O)[O-])C(N)=N1`, the outcome was inactive.
As for `CC#CCCCC1(C)CCCNC1=S` (stereo not given), the EC50 was over 200 µM and the IC50 was over 200 µM.
With `COC(=O)CCC1=C(C)c2cc3[n-]c(cc4nc(cc5[n-]c(cc1n2)c(CCC(=O)OC)c5C)C(C(C)=O)=C4C)c(C(C)=O)c3C.[Ni+2]`, the EC50 was over 100 µM and the IC50 was over 100 µM.
For the compound `O=[N+]([O-])C(=C(N1CCOCC1)N1CCOCC1)/C(Cl)=C(\Cl)Br`, the EC50 was over 200 µM and the IC50 was found to be 9.77 µM.
As for `O=S(=O)(/C=N\N=P(c1ccccc1)(c1ccccc1)c1ccccc1)c1ccccc1-c1ccccc1`, the EC50 is over 200 µM and the IC50 worked out at 107 µM.
Turning to `CCOC(=O)CN1C(=O)c2cc([N+](=O)[O-])cc3cc([N+](=O)[O-])cc(c23)C1=O`, the result was inactive.
`C(#CCN1CCCCCC1)CN1CCCCCC1`: the EC50 was 182 µM and the IC50 was over 200 µM.
Taken in the same sequence, the figures for `COC(=O)c1c[nH]c2c1-c1cc(C(=O)OCc3ccccc3)n(S(=O)(=O)c3ccc(C)cc3)c1C(=O)C2=O` were over 200 µM and 3.72 µM.
On the same counts, the results for `O=C(c1ccc(Cl)cc1)C1OC12C(=O)Nc1c(Cl)cc(Cl)cc12` (stereo not given) are over 19.5 µM and over 19.5 µM.
Taken in the same sequence, the figures for `CNC(=S)N/N=C(\C)c1cc(OC)ccc1O` were over 200 µM and 14.5 µM.
Take `Cc1cc(N(CCC#N)CCC#N)ccc1/C=C(\NC(=O)/C=C/c1ccccc1)NC(=O)Nc1ccccc1C`: the EC50 is over 9.77 µM and the IC50 was over 9.77 µM.
Consider `O=C(N=Nc1c(O)[nH]c2ccccc12)c1ccccc1O`, for which the EC50 was over 25.1 µM and the IC50 came out at 15.5 µM.
As for `CC([C@H]1CCC2C3CCC4CC5(CC[C@]4(C)C3CC[C@@]21C)c1ccccc1C(=O)N5C)N(C)C` (stereo not given in full), the EC50 is over 8.13 µM and the IC50 is over 8.13 µM.
As to `CCOC(=O)c1c(C(=O)OC)nc2n1-c1ccccc1OC2`, the EC50 was over 832 µM and the IC50 worked out at 64.6 µM.
Taken in the same sequence, the figures for `O=C(Nc1cccc(NC(=O)c2cc(=O)c3ccccc3o2)n1)c1cc(=O)c2ccccc2o1` were over 151 µM and over 151 µM.
Consider `C/C(CC(=O)NCCc1ccccc1)=N\NC(=O)C[n+]1ccccc1`, for which the EC50 was over 95.5 µM and the IC50 is over 95.5 µM.
As to `N#Cc1ccccc1NC(=O)/C(=N\N)C(C(=O)c1ccncc1)C1OC(=O)c2ccccc21` (stereo not given), the outcome was inactive.
For `CC1NOC(=O)C1N=Nc1ccccc1Cl` (stereo not given), the EC50 was over 151 µM and the IC50 worked out at 70.8 µM.
Taken in the same sequence, the figures for `O=S(=O)(O)c1c(Cl)c(Cl)c(O)c2ncccc12` were over 200 µM and 1.17 µM.
In the case of `NCCN.O=C([O-])[O-].O=C([O-])[O-].[Co+3].[K+]`, the EC50 is over 646 µM; the IC50 was 295 µM and 339 µM.
For the compound `CC(=O)OC12C=CC(=O)N1c1ccccc1C(=O)O2` (stereo not given), the result was inactive.
For `C=CCOC1(CC=C)C(=O)OC2C(O)COC21O` (stereo not given), the EC50 is over 200 µM and the IC50 is over 200 µM.
As for `COc1cccc2c(NNc3ccc(Cl)cc3)c3ccc([N+](=O)[O-])cc3nc12`, the EC50 was over 200 µM and the IC50 worked out at 12.3 µM.
Taken in the same sequence, the figures for `CC(NC(=O)CNC(=O)C(N)CO)C(=O)NC(CCC(=O)O)C(=O)NC(CCCCN)C(=O)N1CCCC1C(=O)NC(CCC(=O)O)C(=O)NC(CCCCN)C(=O)NC(CCC(=O)O)C(=O)NC(CCCN=C(N)N)C(=O)NC(CO)C(=O)NC(Cc1ccc(O)cc1)C(=O)NC(C)C(=O)NC(Cc1cnc[nH]1)C(=O)NC(CO)C(=O)O` (stereo not given) (H-SGAEKPEKERSYAHS-OH; configuration not given here) were over 100 µM and over 100 µM.
For the compound `CN(C)CCOCn1nnc2ccccc21`, the outcome was inactive.
Consider `O=C1C(Cl)C(c2ccc(Cl)cc2)N1n1cnc2ccccc2c1=O` (stereo not given), for which the EC50 is over 18.6 µM and the IC50 is over 18.6 µM.
As for `CCCNC(=S)N=Nc1c(O)[nH]c2ccccc12`, the EC50 was over 200 µM and the IC50 was over 200 µM.
Regarding `CCC(C)C(NC(=O)C(CCCC(N)=O)NC(=O)CNC(=O)C(NC(=O)C(NC(=O)C(NC(=O)C(Cc1ccccc1)NC(=O)C(C)NC(=O)C(CCCNC(=N)N)NC(=O)CNC(=O)C1CCCN1C(=O)CNC(=O)C(CCCNC(=N)N)NC(=O)C(CCCC(N)=O)NC(=O)C(NC(=O)C(CCCNC(=N)N)NC(=O)C(NC(=O)C(COC1OC(CO)C(O)C(O)C1NC(C)=O)NC(=O)C(CCCCN)NC(=O)C(CCCNC(=N)N)NC(=O)C(NC(=O)C(CC(N)=O)NC(=O)C(N)CC(N)=O)C(C)O)C(C)CC)C(C)CC)C(C)C)C(C)O)C(C)CC)C(=O)NCC(N)=O` (stereo not given), the EC50 is over 50.1 µM and the IC50 was over 50.1 µM.
Regarding `O=c1ccn(C(CO)OC(CO)CCP(=O)(O)O)c(=O)[nH]1` (stereo not given), the EC50 is over 200 µM and the IC50 was over 200 µM.
Take `O=C(O)CCC(=O)Oc1ccc(O)c2c1CCCC2=O`: the EC50 is over 339 µM and the IC50 is over 339 µM.
On to `CCOC(=O)c1ncn(CCc2ccc(Cl)cc2)c1C`, for which the EC50 was over 200 µM and the IC50 is over 100 µM.
As to `CC(C)(C)C1COP(=O)(c2ccccc2)N(c2ccccc2)C1` (stereo not given), the EC50 is over 200 µM and the half-inhibitory concentration (IC50) is 38 µM.
On the same counts, the results for `CCOC(=O)c1cn2ccccc2c(C(=O)c2cccnc2)c1=N` are over 50.1 µM and over 50.1 µM.
On the same counts, the results for `CC1Cc2c(cc(N)nc2Br)NC1=O` (stereo not given) are over 200 µM and 95.5 µM.
On the same counts, the results for `O=c1c2cccnc2nc2ccc3c[nH][nH]c3c12` are over 200 µM and 87.1 µM.
As to `COc1ccc(C(=C(C#N)C#N)c2ccc(OC)cc2)cc1`, the outcome was inactive.
For `COc1ccc2c(c1)c[n+](C)c1c3cc(OC)c(OC)cc3ccc21`, the EC50 is over 151 µM; the IC50 is 1.32 µM and 1.45 µM and 1.35 µM.
`C=CCc1cc(-c2cc(CC=C)c(O)c(CN(CC)CC)c2)cc(CN(CC)CC)c1O`: the EC50 is over 200 µM and the IC50 came out at 93.3 µM.
Taken in the same sequence, the figures for `O=c1[nH]nnc2ccccc12` were over 245 µM and over 245 µM.
As to `C/C(=C1/N=C(c2cc([N+](=O)[O-])ccc2Cl)N(c2cccc(C)c2)C1=O)c1cc2ccccc2oc1=O`, the EC50 was over 7.59 µM and the IC50 was over 7.59 µM.
`c1cncc(-c2nc3sc(-c4cccnc4)nc3s2)c1`: the result was inactive.
